Test results as given in article PMC4078515 (Pharmaceuticals, 2014).
Where “and” joins values, the source holds several entries; their conditions need not be identical. Equal values may be shown once. Read-outs that look alike come from different tables or passages of the source.

Experiments:
in vivo [1] = details: guinea pig; for Cmax / Tmax / AUC(0-t) / half-life: male, Hartley albino
Experimental: (§1) The column used for chromatographic separation was a Waters Xbridge C18, 2.1 × 50 mm 2.5 µm at 30 °C. Mobile phase A: 10:40:50, 1.0% ammonium hydroxide solution in water, adjusted to pH 10.5 with formic acid: water: ACN. Mobile phase B: 10:90, 1.0% ammonium hydroxide solution in water, adjusted to pH 10.5 with formic acid: ACN. Flow rate: 250 µL/min, injection volume: 10 µL, run time: 10 min. Gradient, 100% A hold for 1 min, 0% B to 100% B over 4 min, hold 100% B for 4.5 min, 0% B at 9.51 min and equilibrate for 0.5 min.
(§2) The LTQ-XL ion trap mass spectrometer was coupled to the Accela LC system via an electrospray ionization (ESI) probe. The capillary temperature was maintained at 350 °C, sheath gas flow rate 50 arbitrary units, auxiliary gas flow rate 5 arbitrary units, sweep gas flow rate 0 arbitrary units, source voltage 3.20 kV, source current 100 µA, capillary voltage 43.00 V and tube lens 100 V. Compounds were detected in positive ion mode using selected ion monitoring (SIM). Hydroxybupropion was detected at (M+H)^+ = 256.1099, RT = 1.0 min, Rac-erythro-hydrobupropion (M+H)^+ = 242.1306, RT = 2.3 min, Rac-threo-hydrobupropion (M+H)^+ = 242.1306, RT 2.8 min, bupropion (M+H)^+ = 240.1150, RT = 2.0 min, N-methylbupropion (M+H)^+ = 254.1306, RT = 4.9 min, Rac-N-methyl-erythro-hydrobupropion (M+H)^+ = 256.1463, RT = 4.1 min and Rac-N-methyl-threo-hydrobupropion (M+H)^+ = 256.1463, RT = 4.6 min. The optimum detector conditions were found by tuning the instrument to be most sensitive for bupropion’s most abundant ion at 240 (m/z).
After acclimatization, male Hartley albino guinea-pigs, weighing 280–320 g were deprived of food for 16 h with free access to water (food withdrawal at 04:00 PM the day before). On the day of the experiment five guinea pigs per group were weighed then injected through the abdominal wall or fed by oral gavage with bupropion given at 40 mg/kg intraperitoneum. A second group of five guinea pigs were weighed then injected through the abdominal wall or fed by oral gavage with N-methyl bupropion given at 42 mg/Kg intraperitoneum.
Guinea pigs were placed under isoflurane anesthesia and approximately 100 µL of blood was collected using hematocrit capillaries or by cardiac puncture (terminal) into dry heparin/Li containing tubes before administration and then at five time points post-administration (0, 20, 40, 60, 120 and 180 min) for intraperitoneal study and seven time-points post administration (0, 20, 40, 60, 120, 180, 240 and 360 min) for oral study. After blood was collected, the tubes were inverted several times and placed on ice. The samples were centrifuged within 30 min maximum after sampling at 2205 g at 4 °C for 10 min. Plasma was transferred to polypropylene tubes and frozen with minimal delay at approximately −70 °C.
(§3) Guinea pig plasma was defrosted and centrifuged. Then, plasma (50 µL) was added to a 1.5 mL microcentrifuge tube. ACN (200 µL) was added and the mixture was vortex mixed. The resulting solution was centrifuged at 8000 g for 10 min. Supernatant (100 µL) was added to HCl (100 µL, 0.001 M). The solution was vortex mixed and added to a 100 µL micro-insert for LC-MS analysis.
Pharmacokinetic calculations were determined on Graphpad Prism software. Michaelis-Menten parameters were determined by non-linear regression analysis. The pharmacokinetic data was interpreted using a one-compartment model where the amount of drug present in the body at any given time t [A(t)] is described in Equation (1).
Drug concentration: A(t) = Cp(t)V(1) where Cp(t) and V are the drug concentration in the plasma and the apparent volume of distribution respectively. At least five sample time points were collected including at least one time point before tmax and three time points during the terminal phase for half-life estimation.

in vivo [2] = type: in vivo; details: guinea pig; for concentration at 20 min / Kp at 20 min: Hartley, in vivo
Experimental: Guinea pig plasma was defrosted and centrifuged.
Guinea pig brain was defrosted. […] Supernatant (250 µL) was added to ACN 750 µL.
Brain levels were determined on a separate group.

in vivo [3] = details: Hartley, guinea pig, ip
Experimental: as §1, §2
An additional group of guinea-pigs were used for brain collection at a single time point (20 min). The day of the experiment four guinea pigs per group were weighed then injected through the abdominal wall with bupropion given at 40 mg/kg IP and N-methylbupropion given at 42 mg/Kg IP. At time 20 min post-injection, the animals were decapitated and the brain extracted and rinsed in cold physiological saline. The whole brain was fast frozen on dry ice and placed into pre-labeled vials and stored at approximately −70 °C (deep frozen).>
as §3
Guinea pig brain was defrosted. The whole brain was weighed into a beaker and 0.01 M HCl (20 mL) was added. The mixture was homogenized for 3 min on level 6 and allowed to settle for 10 min. An aliquot of the resulting suspension was centrifuged at 10,000 g for 10 min. Supernatant (250 µL) was added to ACN 750 µL. The mixture was centrifuged at 10,000 g for 10 min. 200 µL of the supernatant was added to 800 µL water. The clear solution was vortex mixed and analyzed by LC-MS.

[4] = pH dependence, cited from earlier work
[5] = tested on: norepinephrine transport (NET); set-up: method as in preceding paper (paper 1 of this series); details: in vitro; ref preceding paper (paper 1 of this series); cited from earlier work
[6] = tested on: dopamine active transport (DAT); set-up: method as in preceding paper (paper 1 of this series); details: in vitro; ref preceding paper (paper 1 of this series); cited from earlier work
[7] = N-demethylation of N-methylbupropion to bupropion, substrate saturation study; type: in vitro ADME; details: 0.1 mg/mL guinea pig S9 liver fraction, 50–1000 μM, 20 min, 37 °C, n = 3
Experimental: Guinea pig S9 liver fraction, NADPH regenerating solutions A and B were thawed rapidly to 37 °C, then kept on wet ice until ready for use. A number of different concentration substrate solutions were prepared were the maximum concentration of DMSO was 1%, and the concentration of guinea pig S9 liver fraction, NADP regenerating system solution B and phosphate buffer was fixed. After incubation for 5 min, NADP regenerating system solution A was added and the metabolism was initiated. Final volume was 100 μL. The tube was inverted twice and vortex mixed. The final concentrations in this solution was 50–1000 μM prodrug, 0.1 mg/mL guinea-pig S9 liver fraction, 1.3 mM NADP^+, 0.4 U/mL glucose-6-phosphate dehydrogenase and 1.0% DMSO. This solution was incubated for 20 min at 37 °C. The reaction was quenched by addition of 100 μL of ACN. […] The supernatant was analysed by LC-MS analysis.
Pharmacokinetic calculations were determined on Graphpad Prism software.
In selecting a guinea pig animal model for an in vivo study, it was prudent to first verify if an in vitro guinea pig model would carry out the same metabolic transformations. […] N-methylbupropion and bupropion concentrations were determined by LC-MS. […] Other unknown minor metabolites of N-methylbupropion were also detected but were not quantified at this stage. These were determined during the in vivo stage, discussed below.

[8] = ip, 42 mg/kg, Mean Cmax ± SD, plasma analyte after N-Methylbupropion dosed at 42 mg/Kg IP, n = 5
[9] = ip, 42 mg/kg, tmax, plasma analyte after N-Methylbupropion dosed at 42 mg/Kg IP, n = 5
[10] = 20 min post dose of 42 mg/Kg N-methyl bupropion via oral gavage, read-out: Brain levels
[11] = 20 min post dose of 42 mg/Kg N-methyl bupropion via oral gavage, read-out: Brain/plasma ratio
[12] = 20 min post dose of 42 mg/Kg N-methyl bupropion via oral gavage, read-out: Plasma levels
[13] = ip, 40 mg/kg, Cmax, plasma analyte after dosing bupropion 40 mg/Kg IP
[14] = ip, 40 mg/kg, tmax, plasma analyte after dosing bupropion 40 mg/Kg IP
[15] = 20 min post dose of 40 mg/Kg bupropion via oral gavage, read-out: Brain levels
[16] = 20 min post dose of 40 mg/Kg bupropion via oral gavage, read-out: Brain/plasma ratio
[17] = 20 min post dose of 40 mg/Kg bupropion via oral gavage, read-out: Plasma levels

Structure (SMILES)	Cmax (in vivo [1]; [8]) [ng/mL]	Tmax (in vivo [1]; [9]) [min]	concentration at 20 min (in vivo [2]; [10]) [ng/g]	Kp at 20 min (in vivo [2]; [11])	concentration at 20 min (in vivo [2]; [12]) [ng/mL]	Kp at 20 min (in vivo [3]; 42 mg/kg)	AUC(0-t) (in vivo [1]; ip, 40 mg/kg) [ng·h/mL]	half-life (in vivo [1]; ip, 40 mg/kg) [min]	Cmax (in vivo [1]; ip, 40 mg/kg, Mean Cmax ± SD) [ng/mL]	Kp at 20 min (in vivo [3]; 40 mg/kg)	Cmax (in vivo [1]; [13]) [ng/mL]	Tmax (in vivo [1]; [14]) [min]	concentration at 20 min (in vivo [2]; [15]) [ng/g]	Kp at 20 min (in vivo [2]; [16])	concentration at 20 min (in vivo [2]; [17]) [ng/mL]	further results
C[C@H]([C@H](O)c1cccc(Cl)c1)N(C)C(C)(C)C (racemic) [N-Me THB, Rac-N-methyl-threo-hydrobupropion]	80 ± 20	19.8	570	14.2	40	12.6	–	–	–	–	–	–	–	–	–	–
C[C@H]1NC(C)(C)CO[C@]1(O)c1cccc(Cl)c1 (relative stereo) [BupOH, hydroxybupropion]	720 ± 140	60	–	–	–	7.61	2330	408	950 ± 170	6.3	–	–	–	–	–	Tmax (in vivo [1]; in vivo): 60 min; Tmax (in vivo [1]; ip, 40 mg/kg): 39.6 min; Kp at 20 min (in vivo [2]; po, 40 mg/kg): 0.5; concentration at 20 min (in vivo [2]; po, 40 mg/kg): 370 ng/g and 730 ng/mL; Kp at 20 min (in vivo [2]; po, 42 mg/kg): 0.4; concentration at 20 min (in vivo [2]; po, 42 mg/kg): 220 ng/g and 550 ng/mL
CC(NC(C)(C)C)C(=O)c1cccc(Cl)c1 (stereo not drawn) [Bup, Bupropion]	380 ± 90	19.8	460	9.2	50	17.1	–	–	–	11.2	869 ± 190	20	430	4.78	90	stability of freebase ([4]; aqueous): suffers from hydrolysis and oxidation at pH > 5; sample stability in plasma ([4]; plasma samples, ref 14,15 (supplement)): stable at low pH; Cmax (in vivo [1]; ip, 40 mg/kg, Mean Cmax ± SD, plasma analyte after Bupropion dosed at 40 mg/Kg IP, n = 5): 870 ± 190 ng/mL; Tmax (in vivo [1]; ip, 40 mg/kg, tmax, plasma analyte after Bupropion dosed at 40 mg/Kg IP, n = 5): 19.8 min
CC(C(=O)c1cccc(Cl)c1)N(C)C(C)(C)C (stereo not drawn) [N-Me Bup, N-methylbupropion]	180 ± 80	19.8	–	–	20	20.2	–	–	–	–	–	–	–	–	–	t½ (in vivo [1]; plasma analyte after N-Methylbupropion dosed at 42 mg/Kg via oral gavage, n = 5): <LOQ; activity at NET compared to bupropion [5]: lower activity; Brain/plasma ratio (in vivo [2]; 20 min post dose of 42 mg/Kg N-methyl bupropion via oral gavage): <LOQ; Brain levels (in vivo [2]; 20 min post dose of 42 mg/Kg N-methyl bupropion via oral gavage, listed as N-MeBup, 42 mg/kg): <LOQ; Brain levels (in vivo [2]; 20 min post dose of 42 mg/Kg N-methyl bupropion via oral gavage, listed as N-methylbupropion, 42 mg/kg): below the limit of quantitation; activity at DAT compared to bupropion [6]: lower activity; Vmax [7]: 419.2 ± 13.65 pmol/min/mg S9
C[C@@H](NC(C)(C)C)[C@H](O)c1cccc(Cl)c1 [THB, threo-hydrobupropion]	970 ± 280	60	620	1.15	540	12.1	2860	198	1220 ± 310	6.54	1230 ± 307	20	970	1.17	830	Tmax (in vivo [1]; in vivo, 42 mg/Kg): 60 min; Tmax (in vivo [1]; ip, 40 mg/kg, tmax): 19.8 min
